Ten compounds from patent publication US10550102B2, “Indane and indoline derivatives and the use thereof as soluble guanylate cyclase activators” (NOVARTIS AG, priority 2014, dated 2020) can be followed below.

pEC50: −log10 of the molar value. A value given as a limit tells only on which side of the number the result lay.

In this assay the target is soluble guanylate cyclase (human GUCYA3 and GUCYB3) overexpressed in CHO cells (Homo sapiens (Human), UniProt Q02108+Q02153). In words: CHO cellular assay (cGMP production, Cisbio cGMP HTRF kit). The class given is cell-based. The note with it: CHO GUCY clone 8E10, cGMP production, assay buffer with 1 mM IBMX and 20 uM ODQ, 1 h room temperature; minimum quantification limit 0.5 nM (listed 0.5 nM means ≤0.5 nM); read-out: EC50. The method in brief:
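Stable CHO-K1 clone 8E10 expressing human sGC (GUCYA3/GUCYB3), 3000 cells/well, exposed 1 h at room temperature to activators in HBSS, 0.1% BSA, 1 mM IBMX, 20 uM ODQ, 0.5% DMSO final. cGMP was measured by HTRF and interpolated from a standard curve. EC50 came from a 4-parameter sigmoidal fit.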
In general terms: TR-FRET usually uses a lanthanide donor and a delayed reading to cut background.

soluble guanylate cyclase (human GUCYA3 and GUCYB3) overexpressed in CHO cells, sequence (Q02108 whole entry partner): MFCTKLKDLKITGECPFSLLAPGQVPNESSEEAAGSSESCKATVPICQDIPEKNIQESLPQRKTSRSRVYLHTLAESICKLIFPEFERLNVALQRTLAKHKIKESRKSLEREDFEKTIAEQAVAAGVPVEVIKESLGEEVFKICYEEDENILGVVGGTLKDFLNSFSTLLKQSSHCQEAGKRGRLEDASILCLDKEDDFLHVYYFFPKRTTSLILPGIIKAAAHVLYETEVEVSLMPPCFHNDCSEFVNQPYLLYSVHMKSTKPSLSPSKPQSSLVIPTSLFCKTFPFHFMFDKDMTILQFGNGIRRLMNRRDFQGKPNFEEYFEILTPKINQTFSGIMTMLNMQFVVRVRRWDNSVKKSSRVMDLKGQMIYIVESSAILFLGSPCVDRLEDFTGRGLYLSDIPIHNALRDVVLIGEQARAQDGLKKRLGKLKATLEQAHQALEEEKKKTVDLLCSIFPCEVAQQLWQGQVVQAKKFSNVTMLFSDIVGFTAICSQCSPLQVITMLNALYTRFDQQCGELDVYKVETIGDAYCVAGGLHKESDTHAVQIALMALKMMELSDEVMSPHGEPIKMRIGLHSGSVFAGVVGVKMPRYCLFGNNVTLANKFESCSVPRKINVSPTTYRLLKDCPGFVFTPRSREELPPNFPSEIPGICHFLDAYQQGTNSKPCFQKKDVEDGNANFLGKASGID
soluble guanylate cyclase (human GUCYA3 and GUCYB3) overexpressed in CHO cells, sequence (Q02153 whole entry): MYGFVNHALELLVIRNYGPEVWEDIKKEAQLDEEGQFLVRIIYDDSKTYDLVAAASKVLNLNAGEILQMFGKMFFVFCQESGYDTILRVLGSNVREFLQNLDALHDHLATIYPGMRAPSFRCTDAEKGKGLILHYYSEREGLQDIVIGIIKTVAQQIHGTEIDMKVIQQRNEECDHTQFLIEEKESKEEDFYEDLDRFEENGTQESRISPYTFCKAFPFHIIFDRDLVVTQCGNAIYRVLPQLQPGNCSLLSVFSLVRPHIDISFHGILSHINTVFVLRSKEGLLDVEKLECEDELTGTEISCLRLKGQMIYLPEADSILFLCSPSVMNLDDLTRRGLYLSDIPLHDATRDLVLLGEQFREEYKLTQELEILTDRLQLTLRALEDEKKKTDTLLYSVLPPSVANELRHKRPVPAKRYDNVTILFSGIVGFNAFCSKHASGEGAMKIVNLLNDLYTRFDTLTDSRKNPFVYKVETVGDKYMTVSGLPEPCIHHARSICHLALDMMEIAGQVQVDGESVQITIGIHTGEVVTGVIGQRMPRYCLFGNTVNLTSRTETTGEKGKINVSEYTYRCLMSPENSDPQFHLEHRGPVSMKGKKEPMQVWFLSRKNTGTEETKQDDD

On to `Cc1cc(C2CCN(C(=O)C3CC3)CC2)ccc1NC1CCc2cccc(-c3cccc(-n4ncc(C(=O)O)c4CC(F)(F)F)n3)c21` (single isomer, unassigned; (+)) [Example 57, (+)-1-(6-(3-((4-(1-(Cyclopropanecarbonyl)piperidin-4-yl)-2-methylphenyl)amino)-2,3-dihydro-1H-inden-4-yl)pyridin-2-yl)-6-(2,2,2-trifluoroethyl)-1H-pyrazole-4-carboxylic Acid], for which the pEC50 (usually the EC50 on a negative log10 scale, so that one unit is a factor of ten) was 9.00. For `CCc1nc(NC2CCc3cccc(-c4cccc(-n5ncc(C(=O)O)c5CC)n4)c32)ccc1C1CCN(C(=O)C2CC2)CC1` (single isomer, unassigned; (+)) [Example 63a, (+)-1-(6-(3-((5-(1-(Cyclopropanecarbonyl)piperidin-4-yl)-6-ethylpyridin-2-yl)amino)-2,3-dihydro-1H-inden-4-yl)pyridin-2-yl)-5-ethyl-1H-pyrazole-4-carboxylic Acid] the value was 8.70; for `Cc1cc(C2CCN(C(=O)C3CC3)CC2)ccc1OC1CCc2cccc(-c3cccc(-n4ncc(C(=O)O)c4C(F)(F)F)c3)c21` (single isomer, unassigned; (+)) [Example (+)-1. b), (+)-1-(3-(3-(4-(1-(cyclopropanecarbonyl)piperidin-4-yl)-2-methylphenoxy)-2,3-dihydro-1H-inden-4-yl)phenyl)-5-(trifluoromethyl)-1H-pyrazole-4-carboxylic acid], not below 9.30; for `Cc1cc(C2CCN(C(=O)C3CC3)CC2)ccc1NC1CCc2cccc(-c3cccc(-n4ncc(C(=O)O)c4C(F)(F)F)n3)c21` (single isomer, unassigned; (+)) [Example (+)-8. b), (+)-1-(6-(3-((4-(1-(cyclopropanecarbonyl)piperidin-4-yl)-2-methylphenyl)amino)-2,3-dihydro-1H-inden-4-yl)pyridin-2-yl)-5-(trifluoromethyl)-1H-pyrazole-4-carboxylic acid], not below 9.30.

With `CCc1cc(CC2CCc3cccc(-c4cccc(-n5ncc(C(=O)O)c5CC)n4)c32)ccc1C1CCN(C(=O)C2CC2)CC1` (single isomer, unassigned; (-)) [38-1 (−), (−)-1-(6-(3-(4-(1-(cyclopropanecarbonyl)piperidin-4-yl)-3-ethylbenzyl)-2,3-dihydro-1H-inden-4-yl)pyridin-2-yl)-5-ethyl-1H-pyrazole-4-carboxylic acid], the pEC50 is 7.77.

For the compound `CCc1cc(CC2CCc3cccc(-c4cccc(-n5ncc(C(=O)O)c5C)n4)c32)ccc1C1CCN(C(=O)C2CC2)CC1` (single isomer, unassigned; (-)) [38-2 (−), (−)-1-(6-(3-(4-(1-(cyclopropanecarbonyl)piperidin-4-yl)-3-ethylbenzyl)-2,3-dihydro-1H-inden-4-yl)pyridin-2-yl)-5-methyl-1H-pyrazole-4-carboxylic acid], the negative logarithm of the EC50 (pEC50) is 8.05. For `CCc1c(C(=O)O)cnn1-c1cccc(-c2cccc3c2C(Cc2ccc(C4CCN(C(=O)C5CC5)CC4)cc2C)CC3)n1` (single isomer, unassigned; (-)) [38-3 (−), (−)-1-(6-(3-(4-(1-(cyclopropanecarbonyl)piperidin-4-yl)-2-methylbenzyl)-2,3-dihydro-1H-inden-4-yl)pyridin-2-yl)-5-ethyl-1H-pyrazole-4-carboxylic acid] the value was 7.48; for `CCC[C@H](O)C(=O)N1CCC(c2ccc(CC3CCc4cccc(-c5cccc(-n6ncc(C(=O)O)c6CC)n5)c43)cc2CC)CC1` (single isomer, unassigned; (-)) [40-1 (−)], 7.82. The result for `CCc1c(C(=O)O)cnn1-c1cccc(-c2cccc3c2C(Cc2ccc(C4CCN(C(=O)[C@H](C)O)CC4)cc2C)CC3)n1` (single isomer, unassigned; (-)) [40-2 (−)] reads 7.60; that for `CCC[C@H](O)C(=O)N1CCC(c2ccc(CC3CCc4cccc(-c5cccc(-n6ncc(C(=O)O)c6CC)n5)c43)c(C)c2)CC1` (single isomer, unassigned; (-)) [40-3 (−)], 7.31.
